According to US12116358B2, “Substituted indoles and methods of use thereof” (EPIZYME, INC., priority 2018, dated 2024):
Read-outs that look alike come from different tables or passages of the source.

Tests used:
SETD2(1434-1711) = target: T1, SETD2(1434-1711) (Homo sapiens, UniProt Q9BYW2); test: SETD2 (1434-1711) assay; format: biochemical; conditions: read-out: SETD2 (1434-1711)
T1 construct: SETD2 (1434-1711) Assay; catalogue N/A
T1 sequence (Q9BYW2 1434-1711): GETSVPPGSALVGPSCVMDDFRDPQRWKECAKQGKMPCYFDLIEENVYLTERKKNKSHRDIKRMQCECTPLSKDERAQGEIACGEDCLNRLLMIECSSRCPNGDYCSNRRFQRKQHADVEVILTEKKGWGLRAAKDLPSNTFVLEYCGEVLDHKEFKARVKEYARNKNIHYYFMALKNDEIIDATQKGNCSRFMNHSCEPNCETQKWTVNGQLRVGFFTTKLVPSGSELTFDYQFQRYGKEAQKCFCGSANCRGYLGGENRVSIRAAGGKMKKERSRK

H3K36me3 in A549 cells = test: In-Cell Western (ICW) assay of SETD2 inhibitors (A549 assay); format: cell-based, human; conditions: A549 cells, read-out: SETD2 A549
In short: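 H3K36me3 In-Cell Western: cells exposed to compound for 3 days at 4,000 cells/well, 37° C. DRAQ5 (1:1000) marked cell number, with 700/800-channel Licor read-out.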

SMILES | IC50 (SETD2(1434-1711)) [nM] | IC50 (H3K36me3 in A549 cells; Homo sapiens) [nM] | IC50 (H3K36me3 in A549 cells) [nM]
Cc1ccc(F)c2cc(C(=O)N[C@@H]3CCC[C@@H](N4CCN5C(=O)N(C)C[C@@H]5C4)C3)[nH]c12 [compound 1127] | 400 | 1300 | 
Cc1cc(OCC(O)CNCc2cccnc2)cnc1C(NC(=O)c1cc2cccc(C)c2[nH]1)C1CC1 (stereo not shown) [compound 430] | 600 |  | 4400
Cc1ccc(F)c2cc(C(=O)Nc3nnc(C4CCN(C)CC4)[nH]3)[nH]c12 [compound 559] | > 10000 | > 25000 | 
Cc1ccc(F)c2cc(C(=O)N[C@@H]3CCC[C@H](c4cc(=O)[nH]cn4)C3)[nH]c12 [compound 1068] | 100 | 700 | 
Cc1ccc(F)c2cc(C(=O)Nc3cccc(N4CC5CN(C)CC5C4)c3)[nH]c12 (stereo not shown) [compound 165] | 10 | 300 | 
Cc1ccc(F)c2cc(C(=O)Nc3cccc(N4CCC(N(CCO)CCO)CC4)c3)[nH]c12 [compound 227] | 30 |  | 500
CCN(C(=O)CO)C1CCN(C2CCCC(NC(=O)c3cc4c(F)ccc(C)c4[nH]3)C2)C1 (stereo not shown) [compound 1130] | 4000 |  | > 2000
CC(=O)N1CCN(C[C@H]2CCC[C@@H](NC(=O)c3cc4c(F)ccc(C)c4[nH]3)C2)CC1 [compound 1032] | 200 | 400 | 
Cc1ccc(F)c2cc(C(=O)NC3CCCC(c4cncnc4)C3)[nH]c12 (stereo not shown) [compound 380] | > 10000 |  | > 2000
CC(=O)N1C(C)CN(C2CCCC(NC(=O)c3cc4c(F)ccc(C)c4[nH]3)C2)CC1C (stereo not shown) [compound 1163] | 1600 |  | > 2000
Cc1ccc(F)c2cc(C(=O)Nc3cccc(N4CCC5(CC4)CNC5)c3)[nH]c12 [compound 179] | 10 | 400 | 
CC(=O)N1CCN([C@@H]2CCC[C@@H](NC(=O)c3cc4c(F)ccc(C)c4[nH]3)C2)C[C@H]1C(F)(F)F [compound 1072] | 2300 | > 2000 | 
Cc1ccc(NC(=O)c2cc3c(F)ccc(C)c3[nH]2)cc1N1CCN(C)CC1 [compound 270] | 50 | 800 | 
Cc1ccc(F)c2cc(C(=O)NC3CCCC(N4CCn5nc(C(F)(F)F)nc5C4)C3)[nH]c12 (stereo not shown) [compound 1066] | 5500 |  | > 2000
CC(=O)N1CCN(C2COCC(NC(=O)c3cc4c(F)ccc(C)c4[nH]3)C2)CC1 (stereo not shown) [compound 988] | 4100 |  | > 2000
Cc1ccc(F)c2cc(C(=O)Nc3cc(Cl)cc(-c4cncnc4)c3)[nH]c12 [compound 145] | 30 | 300 | 
Cc1ccc(F)c2cc(C(=O)Nc3cccc(N4CC(F)C(N(C)C)C4)c3)[nH]c12 (stereo not shown) [compound 63] | 20 |  | 100
Cc1cc(CCN2CCN(C)CC2)cnc1C(NC(=O)c1cc2cccc(C)c2[nH]1)C1CC1 (stereo not shown) [compound 435] | 700 | 4700 | 
CC(=O)N1CCN([C@H]2CCC[C@@H](NC(=O)c3cc4c(F)ccc(C)c4[nH]3)C2)C[C@@H]1CO [compound 1099] | 10 | 100 | 
Cc1cc(C(=O)NC2CCC(N)C2)cnc1C(NC(=O)c1cc2cccc(C)c2[nH]1)C1CC1 (stereo not shown) [compound 516] | 400 |  | 18500

SMILES | IC50 (SETD2(1434-1711)) [nM] | IC50 (H3K36me3 in A549 cells; Homo sapiens) [nM] | IC50 (H3K36me3 in A549 cells) [nM]
Cc1cccc2cc(C(=O)NC3C(=O)NCCc4ccccc43)[nH]c12 (stereo not shown) [compound 482] | 2200 |  | 10200
Cc1ccc(F)c2cc(C(=O)NC3CCCC(N4CCC(N(CCO)S(C)(=O)=O)C4)C3)[nH]c12 (stereo not shown) [compound 1150] | 4200 |  | > 2000
Cc1cc(C(=O)N[C@@H]2CC[C@@H]2N)cnc1C(NC(=O)c1cc2cccc(C)c2[nH]1)C1CC1 (stereo partly shown) [compound 584] | 33700 | > 25000 | 
Cc1ccc(F)c2cc(C(=O)N[C@H]3CCC[C@H](c4cccnc4)C3)[nH]c12 [compound 904] | 8100 | > 2000 | 
Cc1ccc(F)c2cc(C(=O)N[C@@H]3CCC[C@@H](N4CCN5C(=O)OCC5C4)C3)[nH]c12 (stereo partly shown) [compound 866] | 900 | > 2000 | 
Cc1ccc(F)c2cc(C(=O)N[C@@H]3CCC[C@@H](N4CCC5(CCC(=O)N5)CC4)C3)[nH]c12 [compound 939] | 500 | > 2000 | 
Cc1ccc(F)c2cc(C(=O)NC3CCCC(N4CCC(N(C)C(=O)CO)C4)C3)[nH]c12 (stereo not shown) [compound 984] | 5300 |  | > 2000
CC(=O)N1CC2CCC1CN2C1CCCC(NC(=O)c2cc3c(F)ccc(C)c3[nH]2)C1 (stereo not shown) [compound 962] | 800 |  | > 2000
Cc1ccc(F)c2cc(C(=O)N[C@@H]3CCC[C@H](N4CCN(C(=O)C(C)C)CC4)C3)[nH]c12 [compound 837] | 20 | 100 | 
Cc1ccc(F)c2cc(C(=O)NC3CCCC(c4cncnc4)C3)[nH]c12 (stereo not shown) [compound 369] | 6300 |  | > 2000
Cc1ccc(F)c2cc(C(=O)Nc3cccc(-c4cccc(CN(C)C)c4)c3)[nH]c12 [compound 266] | 60 | 700 | 
COCCN(C(C)=O)C1CCN(C2CCCC(NC(=O)c3cc4c(F)ccc(C)c4[nH]3)C2)C1 (stereo not shown) [compound 843] | 200 |  | 800
Cc1ccc(F)c2cc(C(=O)NC3CCCC(c4nnc(CN(C)C)o4)C3)[nH]c12 (stereo not shown) [compound 955] | 200 |  | 800
Cc1cccc2cc(C(=O)NC(CN(C)C)c3cccnc3)[nH]c12 (stereo not shown) [compound 603] | > 50000 |  | > 25000
Cc1ccc(F)c2cc(C(=O)NC(C(=O)N3CCOCC3)c3ccccn3)[nH]c12 (stereo not shown) [compound 560] | > 10000 | > 25000 | 
Cc1ccc(F)c2cc(C(=O)Nc3cc(F)cc(N4CCC(N(C)C)C4)c3)[nH]c12 (stereo not shown) [compound 53] | 5 |  | 100
Cc1cccc2cc(C(=O)NC3CC(NC(=O)CCN)C3)[nH]c12 (stereo not shown) [compound 597] | > 50000 |  | > 25000
Cc1ccc(F)c2cc(C(=O)N[C@@H]3CCC[C@@H](N4CCC5(CC4)CNC(=O)C5)C3)[nH]c12 [compound 929] | 1700 | > 2000 | 
Cc1ccc(F)c2cc(C(=O)Nc3cccc(-n4cnc(CN(C)C)n4)c3)[nH]c12 [compound 276] | 90 | 900 | 
Cc1ccc(F)c2cc(C(=O)Nc3cc(F)cc(C4CCN(C(=O)CN(C)C)C4)c3)[nH]c12 (stereo not shown) [compound 140] | 10 | 300 | 

SMILES | IC50 (SETD2(1434-1711)) [nM] | IC50 (H3K36me3 in A549 cells; Homo sapiens) [nM] | IC50 (H3K36me3 in A549 cells) [nM]
Cc1ccc(F)c2cc(C(=O)Nc3cccc(N4CCC5(CCCN5)CC4)c3)[nH]c12 [compound 86] | 5 |  | 200
Cc1ccc(F)c2cc(C(=O)Nc3cccc([C@H]4CCN5C(=O)CC[C@@H]5C4)c3)[nH]c12 [compound 166] | 70 | 300 | 
Cc1ccc(F)c2cc(C(=O)Nc3cccc(NC4CCN(C)C4)c3)[nH]c12 (stereo not shown) [compound 330] | 70 | 1600 | 
Cc1ccc(F)c2cc(C(=O)Nc3cccc(N4CCC5(CC4)COC5)c3)[nH]c12 [compound 57] | 30 |  | 100
Cc1ccc(F)c2cc(C(=O)N[C@@H]3CCC[C@H](N4CCN(C(=O)CN(C)C)CC4)C3)[nH]c12 [compound 854] | 20 |  | 500
Cc1ccc(F)c2cc(C(=O)NC3CCCC(N4CCN(C5CCOC5)C(=O)C4)C3)[nH]c12 (stereo not shown) [compound 974] | 2600 |  | > 2000
Cc1ccc(F)c2cc(C(=O)N[C@@H]3CCC[C@@H](N4CCn5c(nnc5C(F)(F)F)C4)C3)[nH]c12 [compound 990] | 3200 | > 2000 | 
Cc1cccnc1C(NC(=O)C1Cc2cccc(C)c2N1)C1CC1 (stereo not shown) [compound 607] | > 50000 | > 25000 | 
Cc1ccc(F)c2cc(C(=O)N[C@@H]3CCC[C@H](c4nccc(=O)[nH]4)C3)[nH]c12 [compound 1013] | 706 | > 2000 | 
Cc1ccc(F)c2cc(C(=O)Nc3cccc(C4CCC(N(C)C)C4)c3)[nH]c12 (stereo not shown) [compound 282] | 40 | 1000 | 
Cc1ccc(F)c2cc(C(=O)Nc3cccc(N4CCOCC4CO)c3)[nH]c12 (stereo not shown) [compound 265] | 200 | 700 | 
Cc1cccc2cc(C(=O)NCc3cccc4ccnn34)[nH]c12 [compound 570] | 15000 | > 25000 | 
Cc1cccc2cc(C(=O)Nc3ccc4nc(CN5CCNCC5)ncc4c3)[nH]c12 [compound 541] | 2000 |  | > 25000
Cc1ccc(F)c2cc(C(=O)N[C@@H]3CCC[C@@H](N4CCN(C)C(=O)C4C)C3)[nH]c12 (stereo partly shown) [compound 885] | 7600 | > 2000 | 
Cc1ccc(F)c2cc(C(=O)Nc3ccc4nc(NC5CCNCC5)ncc4c3)[nH]c12 [compound 416] | 40 | 3300 | 
Cc1ccc(F)c2cc(C(=O)Nc3cccc(N4CCC(N5CCC(N)CC5)C4)c3)[nH]c12 (stereo not shown) [compound 347] | 3 |  | 1900
Cc1ccc(=O)[nH]c1C(NC(=O)c1cc2cccc(C)c2[nH]1)C1CC1 (stereo not shown) [compound 506] | 4900 |  | 15100
Cc1ccc(F)c2cc(C(=O)N[C@@H]3CCC[C@@H](N4CCn5c(cccc5=O)C4)C3)[nH]c12 [compound 1143] | 1900 |  | > 2000
Cc1ccc(F)c2cc(C(=O)Nc3cccc(N4CCN(C(=O)OC(C)(C)C)CC4)c3)[nH]c12 [compound 260] | 200 | 700 | 
